Test results published in EP0083600B1, “Use of alkaloid derivatives for the manufacture of a medicament for the strengthening of the immune system and for the treatment of viral, bacterial and fungal infections” (Nowicky, Wassyl, priority 1981, dated 1983).

Experiment: Biological test of toxicity (lethal dose)
Type: in vivo
Conditions: biologischer Test
Procedure: Weiterhin ließ sich nachweisen, daß in dem Präparat Ukrain (hier erfolgte die Umsetzung der Alkaloide von Chelidonium majus L. mit Thiophosphorsäuretriaziridid, gen. Thio-TEPA) keine freien Äthylengruppen des Thio-TEPA vorliegen. Dieser Nachweis wurde erbracht: • 1. durch eine chemische Analyse und • 2. dadurch, daß beim biologischen Test die Dosis letalis für Thio-TEPA bei 1 mg/kg Körpergewicht liegt, für das Präparat jedoch eine Dosis von 250 mg/kg Körpergewicht nicht toxisch ist.

In the case of `S=P(N1CC1)(N1CC1)N1CC1` [Thio-TEPA, Thiophosphorsäuretriaziridid], the Dosis letalis is reported as 1 mg/kg Körpergewicht.
